In ChEMBL document CHEMBL1146570, “Eudesmane derivatives and other sesquiterpenes from Laggera alata” (J Nat Prod, 2003):

What was measured:
[1] = tested on: KB; assay: Cytotoxicity against human KB cells after 72 hrs; assay type: functional, cell-based
[2] = tested on: A549; assay: Cytotoxicity against human A549 cells at 20 ug/mL after 72 hrs; assay type: functional; details: A549, 72 h
[3] = tested on: SK-MEL; assay: Cytotoxicity against human SK-MEL cells at 20 ug/mL after 72 hrs; assay type: functional

Row | Structure (SMILES) | IC50 [1] | inhibition at 20 µg/mL [2] | inhibition at 20 µg/mL [3]
1 | C=C(C(=O)O)[C@@H]1CC[C@@]2(C)CC[C@@H](O)[C@@](C)(O)[C@@H]2C1 | > 100 µM |  | 
2 | C=C(C(=O)O)[C@@H]1CC[C@@]2(C)CCC[C@@](C)(O)[C@@H]2C1 [ILICIC ACID] |  | 10.3% | 23.6%
